Laboratory results published in article PMC11551755, “Structure-based discovery of first inhibitors targeting the helicase activity of human PIF1” (Nucleic Acids Research, 2024).

Biological target: T1, FLhPIF1 (Homo sapiens, UniProt Q9H611)
T1 construct: Full length human PIF1 (FLhPIF1) was expressed and purified as a His-SUMO fusion; His-SUMO (cleaved yes); made in house; 'following similar protocols' to hPIF1HD (ArcticExpress BL21(DE3) E. coli)
T1 sequence (Q9H611 1-641): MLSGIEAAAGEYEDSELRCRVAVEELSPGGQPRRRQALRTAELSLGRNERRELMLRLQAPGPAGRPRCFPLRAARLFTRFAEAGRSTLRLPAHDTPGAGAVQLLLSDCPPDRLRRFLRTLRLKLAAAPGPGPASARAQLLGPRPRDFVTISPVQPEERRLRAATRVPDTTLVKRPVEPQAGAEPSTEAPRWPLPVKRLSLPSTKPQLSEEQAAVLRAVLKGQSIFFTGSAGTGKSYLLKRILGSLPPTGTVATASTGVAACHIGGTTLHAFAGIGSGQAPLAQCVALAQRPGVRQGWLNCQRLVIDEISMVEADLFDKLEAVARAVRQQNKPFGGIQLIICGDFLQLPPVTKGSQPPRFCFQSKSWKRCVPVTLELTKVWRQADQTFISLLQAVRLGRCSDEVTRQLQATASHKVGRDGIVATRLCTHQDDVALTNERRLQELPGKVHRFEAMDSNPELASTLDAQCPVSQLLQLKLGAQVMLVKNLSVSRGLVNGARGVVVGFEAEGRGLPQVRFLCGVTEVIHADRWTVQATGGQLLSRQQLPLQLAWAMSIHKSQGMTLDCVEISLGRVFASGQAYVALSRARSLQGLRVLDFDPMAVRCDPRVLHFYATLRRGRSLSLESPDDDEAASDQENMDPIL
Test: DNA-dependent ATPase assay
Type: biochemical
Details: 1 mM compound, 25 nM FLhPIF1, 250 nM d(T)55, 10 min at 37°C
Method: ATP hydrolysis was measured under helicase reaction conditions with 25 nM FLhPIF1 and 250 nM oligo d(T)55 and 0.0125 μM [γ-^32P]ATP (6000 Ci/mmol). Released phosphate was quantified using the charcoal binding assay of Iggo and Lane ([45]) after 10 min at 37°C.
Supplementary Figure 11. ATPase activity determined with and without inhibitors. ATPase assays, 25 nM FLhPIF1, 250 nM d(T)55 ssDNA, were performed for 10 minutes at 37 °C under helicase reaction conditions, with and without 1 mM compound (n = 3). Compound 2 was not included in the analysis due to lack of available material. […] The data are broadly in agreement with the results of ssDNA binding EMSA except compound 6 (see discussion).

For `Nc1nc(-c2ccc(C(=O)c3ccccc3)cc2)cs1` [Compound 6], the “inhibition of DNA-dependent ATPase” value was “effective inhibitor of DNA-dependent ATPase”.
